One series concerns the target T1, AR(L702H) (Homo sapiens, UniProt P10275, L702H).
T1 construct: expressed in transfected cells; host or cells: DU145
T1 sequence (P10275 1-920 L702H): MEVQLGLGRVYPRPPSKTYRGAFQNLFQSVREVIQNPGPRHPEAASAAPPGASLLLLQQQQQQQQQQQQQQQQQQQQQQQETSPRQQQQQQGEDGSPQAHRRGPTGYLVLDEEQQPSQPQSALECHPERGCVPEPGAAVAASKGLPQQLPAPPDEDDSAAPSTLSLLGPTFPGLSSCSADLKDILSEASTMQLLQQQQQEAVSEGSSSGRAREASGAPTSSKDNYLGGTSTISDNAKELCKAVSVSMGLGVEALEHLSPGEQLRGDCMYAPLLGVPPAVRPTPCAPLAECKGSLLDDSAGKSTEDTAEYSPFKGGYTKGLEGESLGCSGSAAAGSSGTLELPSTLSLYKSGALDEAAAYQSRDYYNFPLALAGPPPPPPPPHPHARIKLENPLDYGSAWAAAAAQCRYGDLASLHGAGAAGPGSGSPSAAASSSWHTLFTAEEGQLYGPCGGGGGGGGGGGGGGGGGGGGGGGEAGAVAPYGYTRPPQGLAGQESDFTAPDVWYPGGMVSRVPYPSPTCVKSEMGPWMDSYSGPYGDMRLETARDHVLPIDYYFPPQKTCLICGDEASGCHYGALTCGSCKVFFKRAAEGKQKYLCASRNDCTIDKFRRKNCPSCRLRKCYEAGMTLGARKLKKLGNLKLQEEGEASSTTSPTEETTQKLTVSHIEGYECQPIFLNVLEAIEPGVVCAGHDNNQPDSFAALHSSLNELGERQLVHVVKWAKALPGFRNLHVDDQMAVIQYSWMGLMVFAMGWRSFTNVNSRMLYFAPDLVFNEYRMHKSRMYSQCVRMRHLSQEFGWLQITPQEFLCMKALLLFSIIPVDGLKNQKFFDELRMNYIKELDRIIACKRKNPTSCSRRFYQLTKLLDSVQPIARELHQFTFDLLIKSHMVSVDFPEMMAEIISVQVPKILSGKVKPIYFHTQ
Briefly: Degradation of ectopic Myc-tagged AR mutant in DU145 cells (western blot). It counts as cell-based. To be noted: 10 μM, 24 hours. From the text: pLenti4/TO/Flag-AR and pLenti4/TO/Flag-AR(∆LBD) plasmids are as described previously. To generate pLenti4/TO/Flag-AR-V7 plasmid, the DNA fragment of AR-V7 was amplified from pEGFP-C1-AR V7, a gift from Michael A Mancini (Addgene plasmid # 86856), and inserted into the pLenti4/TO plasmid carrying a N-terminal Flag tag between BamH1 and XhoI. The AR(L702H) and AR(H875Y) mutants were generated by site-directed mutagenesis of pCMV-Myc-AR, which is previously constructed and described in [22]. Primers used in the cloning and mutagenesis are: […]
Cell lysis, Western blotting, and AR ubiquitination were performed as described in [17]. […]
Fig. 1 ITRI-148 induces degradation of both AR and AR-V7 proteins in CRPC cells. […] AR-V7 expression was detected using an anti-Flag antibody. […] An N-terminal AR antibody was used to detect both full-length AR and LBD-truncated variants (AR-V(ΔLBD)) in CWR22Rv1 cells, while AR-V7 was detected using an AR-V7-specific antibody. DC₅₀ values were calculated from normalized band intensities, and Dₘₐₓ represents the maximal degradation achieved at 10 μM ITRI-148. (D) Immunofluorescence staining of AR after 24 or 48 hours of ITRI-148 treatment, detected using an N-terminal AR antibody. […] Quantified AR levels are as indicated. […]
(In general: A western blot detects proteins with antibodies after separation by electrophoresis.)

Series [1] is described as follows: Metabolic stability in liver microsomes. It counts as in vitro ADME. To be noted: for Remaining of intact drug (%): 1 μM, incubation up to 60 minutes; for half-life at 1 μM: pH 7.4, read-out: Plasma Stability t1/2 (microsome panel). The protocol: The metabolic stability of all PROTAC compounds in the screening phase (Table 1) was evaluated using mouse liver microsomes. Incubations were performed at 37 °C in phosphate buffer (pH 7.4) containing NADPH (1 mM), 0.5 mg/mL microsomal protein and 1 μM ITRI-148 (0.25 % DMSO) for 0, 5, 20, or 30 minutes, followed by quenching with acetonitrile (1:3, v/v) for HPLC analysis. To evaluate the species-specific metabolism of ITRI-148, its stability was assessed in liver microsomes from human, dog, rat, and mouse using same incubation conditions as above, with the time extending to 0, 15, 30, 45, and 60 minutes, followed by acetonitrile quenching (1:10) and LC-MS/MS analysis.

In a further series the test system is AR. The series is described as follows: AR degradation by immunoblotting in CRPC cells. Type of series: cell-based. Here is the method: Cell lysis, Western blotting, and AR ubiquitination were performed as described in [17]. Primary antibodies: AR (Millipore 06-680), AR-V7 (RevMAb Biosciences 31-1109-00), PSA (ABclonal A4355), NKX3-1 (Cell Signaling Technology 92998), GAPDH (Cell Signaling Technology 2118) and β-Actin (Sigma-Aldrich A5441).
Fig. 1 ITRI-148 induces degradation of both AR and AR-V7 proteins in CRPC cells. […] (B) Expression of Flag-tagged AR-V7 in 293T cells following ITRI-148 treatment. Cells transiently expressing Flag-AR-V7 were pretreated with 50 μg/mL cycloheximide for 1 hour, then exposed to ITRI-148 at the indicated concentrations for 8 hours. AR-V7 expression was detected using an anti-Flag antibody. (C) Representative immunoblots showing AR protein levels in VCaP and CWR22Rv1 cells after 48 hours of ITRI-148 treatment. An N-terminal AR antibody was used to detect both full-length AR and LBD-truncated variants (AR-V(ΔLBD)) in CWR22Rv1 cells, while AR-V7 was detected using an AR-V7-specific antibody. DC₅₀ values were calculated from normalized band intensities, and Dₘₐₓ represents the maximal degradation achieved at 10 μM ITRI-148. (D) Immunofluorescence staining of AR after 24 or 48 hours of ITRI-148 treatment, detected using an N-terminal AR antibody. […] (F) Western blot analysis of ectopically expressed wild-type (WT) and mutant Myc-tagged AR in DU145 cells following 24 hours of treatment with 10 μM ITRI-148. Quantified AR levels are as indicated. TEXT PRINTED IN THE PICTURE: (C) ITRI-148: DC50 (μM) AR CWR22Rv1: 1.23 ± 1.86; DC50 (μM) AR VCaP: 0.05 ± 0.03; DC50 (μM) AR-V7 CWR22Rv1: 1.20 ± 0.92; DC50 (μM) AR-V7 VCaP: 0.02 ± 0.02; Dmax (%) AR CWR22Rv1: 65.02 ± 19.91; Dmax (%) AR VCaP: 80.49 ± 5.61; Dmax (%) AR-V7 CWR22Rv1: 72.10 ± 3.15; Dmax (%) AR-V7 VCaP: 91.36 ± 2.05

Several values for one entry are separate records, joined by “and”; a condition that tells them apart may be missing. Equal entries are not always repeated. Where two headings read alike, the source gives them in different places.

`O=C1CCC(N2C(=O)c3cccc(NCC(=O)N4CCC(N5CCC(C#Cc6ccc(C7CCN(C8=Nn9c(nnc9C(F)(F)F)CC8)CC7)cc6)CC5)CC4)c3C2=O)C(=O)N1` (stereo not drawn) [ITRI-148]: the “degradation of Myc-tagged AR mutant L702H” value on AR(L702H) was “degraded”. For the same compound, the “Remaining of intact drug (%)” value in series [1] (dog liver microsomes) worked out at 88.3 ± 4.3%; in series [1] (human liver microsomes), 85.9 ± 2.2%; in series [1] (rat liver microsomes), 75.3 ± 1.2%. For the same compound, the half-life at 1 μM in series [1] (dog liver microsomes), in series [1] (human liver microsomes) and in series [1] (rat liver microsomes) was greater than 1 h throughout. For the same compound, the DC50 with AR (CWR22Rv1, 48 hours, read-out: DC50 AR) is 1230 ± 1860 nM; with AR (VCaP cells, read-out: half-maximal degradation concentration (DC50) for AR) it was roughly 50 nM; in the series with AR (VCaP, 48 hours, read-out: DC50 AR), 50 ± 30 nM. Besides, the “Dmax AR” value in the series on AR (CWR22Rv1, maximal degradation at 10 μM) was 65.02 ± 19.91%; in the series with AR (VCaP, maximal degradation at 10 μM) it was 80.49 ± 5.61% and 80%.

Values taken from paper PMC12661400, “Oral bioavailable ITRI-148 degrades androgen receptor variants and overcomes antiandrogen resistance in advanced prostate cancer” (Neoplasia (New York, N.Y.), 2025).
